The values below come from patent publication US11773146B2, “Disruption of the WAVE3 protein complex for suppression of invasion and metastasis” (UNIVERSITY OF GEORGIA RESEARCH FOUNDATION, INC., priority 2015, dated 2023).

Entries after “also recorded” stand apart in the source; their conditions may differ. Bridges are numbered along the chain shown (N, C = ends). Where no end group is shown, it is not given here. [ ]: non-standard residue; d: D form. S5 = C=CCCC[C@](C)(N)C(=O)O

Assay [1] relates to WASF3. The experiment in a line: IP analysis of WASF3 phosphorylation. Particulars: for WASF3 phosphorylation levels: MDA-MB-231 cells, same effect in PC3; for suppression of WASF3 phosphorylation compared with 17-AAG: comparison with HSP90 inhibitor 17-AAG. Type of assay: cell-based. On the procedure: (§1) Immunoprecipitation assays were carried out as described previously (Sossey-Alaoui, K., et al. J. Biol. Chem. 82:26257-26265 (2007)). Specially, to determine the physical interaction with individual peptides, MDA-MB-231 cells were pretreated with 10 μM biotin-labeled peptides for 24 hours and lysates were incubated with immobilized avidin resin overnight at 4° C. The pull down samples were subjected to SDS-PAGE followed by Western blot analysis.

Assay [2] has as its system MDA-MB-231 and Hs578T cells. Nature of the assay: Transwell invasion assay with RAC1 inhibitor. The format is cell-based. Conditions: dose-dependent treatment. From the text:
(§2) MDA-MB-231, Hs578T and T47D breast cancer cell lines were obtained directly from American Type Culture Collection (Rockville, Md.). MDA-MB-231 and T47D and have been verified using SNP-CGH (Teng Y, et al. Int J Cancer 2011 129:2825-2835) for characteristic cytogenetic changes. The ATCC Cell Authentication Testing service confirmed the identity of Hs578T using STR DNA fingerprinting analysis. Standard cell culture, transient transfections, RT-PCR, western blotting, immunoprecipitation (IP), flow cytometry, Biotin-Avidin pulldown, lentiviral transduction, cell proliferation and Transwell invasion assays were carried out as described previously (Teng Y, et al. Int J Cancer 2011 129:2825-2835; Teng Y, et al. J Biol Chem 2012 287:10051-10059; Teng Y, et al. Carcinogenesis 2013 34:1994-1999).

Another assay deals with WASF3, NCKAP1 or RAC1. Nature of the assay: Western blot of protein levels with RAC1 inhibitor. The format is cell-based. Particulars: MDA-MB-231 and Hs578T cells.
Description: as §2

The test system of assay [3] is MDA-MB-231 cells overexpressing NCKAP1. Nature of the assay: Transwell invasion assay in cells overexpressing NCKAP1. The format is cell-based. Particulars: parental cells with empty vector and cells overexpressing NCKAP1.
Description: as §2
Lentiviral pCDH-CMV-MCS-EF1-PURO-HA-WASF3 (pCDH-HA-WASF3) was generated as described previously (Teng Y, et al. Carcinogenesis 2013 34:1994-1999). To construct the HA-NCKAP1 overexpression vector, the full-length human NCKAP1 was amplified from the template NCKAP1 cDNA clone (OriGene, Rockville, Md.) and was inserted into pCDHCMV-MCS-EF1-GFP lentiviral vector (System Biosciences, Mountain View, Calif.) as described previously (Teng Y, et al. Oncogene 2014 33:203-211). […]

Another assay concerns MDA-MB-231 cells. The experiment in a line: Transwell invasion assay (WANT peptides). The format is cell-based. Particulars: for invasion potential: final concentration of 10 μM. From the text: There are currently no small molecules that target WASF3 function directly, but targeting the WRC may provide a means of suppressing invasion.
For another assay, the target named is T1, CYFIP1 (Homo sapiens, UniProt Q7L576).
T1 construct: endogenous in cells; host or cells: MDA-MB-231
T1 sequence (Q7L576 whole entry): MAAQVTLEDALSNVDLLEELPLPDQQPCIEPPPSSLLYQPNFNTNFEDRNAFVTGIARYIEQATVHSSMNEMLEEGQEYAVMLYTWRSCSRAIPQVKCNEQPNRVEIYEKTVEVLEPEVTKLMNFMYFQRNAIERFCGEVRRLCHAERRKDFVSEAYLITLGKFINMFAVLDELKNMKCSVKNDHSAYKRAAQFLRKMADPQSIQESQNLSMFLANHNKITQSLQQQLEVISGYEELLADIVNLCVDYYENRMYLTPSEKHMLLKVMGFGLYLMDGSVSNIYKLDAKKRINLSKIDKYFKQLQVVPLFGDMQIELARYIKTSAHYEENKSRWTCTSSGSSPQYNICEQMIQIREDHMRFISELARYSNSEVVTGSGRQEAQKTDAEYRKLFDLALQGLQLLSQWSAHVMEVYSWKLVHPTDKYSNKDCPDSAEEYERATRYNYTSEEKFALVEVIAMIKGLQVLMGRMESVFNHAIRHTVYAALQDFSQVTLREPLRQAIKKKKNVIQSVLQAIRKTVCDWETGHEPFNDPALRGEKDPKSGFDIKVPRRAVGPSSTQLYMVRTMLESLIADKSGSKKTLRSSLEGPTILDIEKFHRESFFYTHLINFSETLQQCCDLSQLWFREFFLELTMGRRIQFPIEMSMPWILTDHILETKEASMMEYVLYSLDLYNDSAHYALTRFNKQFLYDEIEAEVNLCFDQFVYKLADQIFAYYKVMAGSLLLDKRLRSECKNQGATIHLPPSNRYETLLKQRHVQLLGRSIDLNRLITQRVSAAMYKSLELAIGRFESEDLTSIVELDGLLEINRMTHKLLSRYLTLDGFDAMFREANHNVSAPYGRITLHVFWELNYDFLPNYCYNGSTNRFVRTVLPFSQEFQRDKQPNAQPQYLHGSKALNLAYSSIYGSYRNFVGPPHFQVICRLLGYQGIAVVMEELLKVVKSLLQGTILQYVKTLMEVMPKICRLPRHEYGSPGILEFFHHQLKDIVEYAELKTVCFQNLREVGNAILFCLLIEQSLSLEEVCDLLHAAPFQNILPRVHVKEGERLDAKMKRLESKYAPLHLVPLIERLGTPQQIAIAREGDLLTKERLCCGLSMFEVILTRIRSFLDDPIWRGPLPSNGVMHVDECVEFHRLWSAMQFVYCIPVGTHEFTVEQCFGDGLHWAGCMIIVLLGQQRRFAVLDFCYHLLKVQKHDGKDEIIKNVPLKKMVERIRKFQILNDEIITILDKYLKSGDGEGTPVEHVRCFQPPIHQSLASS
The experiment in a line: Avidin-biotin pull down with biotinylated stapled peptides. The format is binding. Conditions: biotinylated peptide 10 μM, MDA-MB-231 cells. The procedure:
as §1
To determine whether the SPs formed a complex with WASF3 within the cells, MDA-MB-231 cells were exposed to biotinylated WAHM1 and WAHM2 for 6 hours, after which the cells were lysed and pull down assays were performed using avidin-coated beads.

Another assay has as its target T2, WASF3-CYFIP1 complex (Homo sapiens, UniProt Q7L576).
T2 construct: endogenous in cells; host or cells: MDA-MB-231
The experiment in a line: IP of WASF3: presence of CYFIP1 in the immunocomplex. Type of assay: cell-based. Particulars: MDA-MB-231 cells treated with the SPs. The procedure:
as §1

Assay [4] deals with WASF3. The experiment in a line: Western blot of WASF3 protein levels after WAHM treatment. The format is cell-based. Conditions: for WASF3 levels in serum-starved cells: MDA-MB-231 and PC3 cells starved overnight, then treated for 4 hours; for intracellular levels of either WASF3 or CYFIP1: MDA-MB-231 cells; for WASF3 protein levels: MDA-MB-231 cells in serum, 2 to 24 hours. The procedure:
(§3) Hs578T, MDA-MB-231, DU145 and PC3 cells were purchased from the American Type Culture Collection (ATCC) and maintained according to the supplier's instructions. Lentiviral transduction, cell proliferation assays, wound healing assays, Matrigel invasion assays, Western blotting, flow cytometry and confocal image analysis were carried out as described previously (Teng, Y., et al. Br. J. Cancer 103:1066-1075 (2010); Teng, Y., et al. Int. J. Cancer 129:2825-2835 (2011); Teng, Y., et al. Oncogene 33:203-211 (2014); Teng, Y., et al. J. Biol. Chem. 287:10051-10059 (2012); Teng, Y., et al. Carcinogenesis […] (2013); Teng, Y. et al. Oncogene Mar 30 (2015)).

Assay [5] deals with MDA-MB-231 and PC3 cells. Nature of the assay: MTS cell proliferation assay. The format is cell-based. Particulars: 10 μM over 24 hours. On the procedure:
as §3

The subject of assay [6] is MDA-MB-231 and PC3 cells. Nature of the assay: Phalloidin staining and quantitation of filamentous actin. Particulars: 24 hours; for actin stress fibers (phalloidin staining): 10 μM; for fluorescence intensity of phalloidin stained cells: versus DMSO or scrambled peptides. Type of assay: cell-based. On the procedure: MDA-MB-231 and PC3 cells were seeded (10,000 cells per well) on slides with the Nunc™ Lab-Tek™ II Chamber Slide™ System (Thermo Fisher Scientific) in complete medium overnight and incubated with 10 μM WAHM or scrambled peptides for 24 hours. Cells were then fixed with 3.7% formaldehyde for 15 min and permeabilized with 0.1% Triton X-100 for 10 min and incubated with Texas-red phalloidin (Life technologies) for an additional 30 min to stain actin filaments. Cells were imaged using a Zeiss LSM 410 confocal microscope equipped with ×63 (1.4 numerical aperture) oil objective (Carl Zeiss) as previously described8. To quantitate the filamentous actin, cells were seeded at 2000 cells per well in a 96 well plate and treated with […] or scrambled peptides for 24 hours. Cells were then stained with phalloidin as described above, followed by extensive washings. Phallodin was solubilized with methanol and the supernatant was transferred to a clear-bottom black plate, and the fluorescence was determined using Infinite® M1000 PRO (Tecan). A parallel set of cells was used to determine cell number using the CellTiter-Glo® Luminescent Cell Viability kit from Promega (Madison), according to the manufacturer's parameters. Data from three independent experiments were expressed as mean relative fluorescence units per cell SEM.

For assay [7], the system named is MDA-MB-231 and PC3 cells. The experiment in a line: Scratch wound assay. Particulars: breast and prostate cell lines, versus DMSO and scrambled peptide. The format is cell-based. On the procedure:
as §3

For assay [8], the system named is MDA-MB-231 and PC3 cells. Nature of the assay: Transwell invasion analysis (WAHM peptides). The format is cell-based. Conditions: breast and prostate cells. On the procedure: as §3
A further assay concerns KISS1. Nature of the assay: Western blot of KISS1 levels. The format is cell-based. Conditions: MDA-MB-231 cells, compared with scrambled peptides. The procedure: as §3
Another assay has as its system MMP-9. The experiment in a line: MMP-9 secretion in culture supernatant by ELISA. Conditions: MDA-MB-231 and PC3 cells, 24 hours, compared with scrambled controls. The format is cell-based, Human. On the procedure:
After incubation with WAHM or scrambled peptides for 24 hours, MDA-MB-231 and PC3 cell supernatants were recovered and centrifuged at 1000 g at 4° C. for 20 min. MMP-9 levels in supernatants were measured using the Human MMP-9 Quantikine® ELISA kit (R&D Systems) and microplate reader at 450 nm.

T2 sequence (Q7L576 whole entry): as above
T2 sequence (Q9Y2A7 2-1128 partner limits assumed): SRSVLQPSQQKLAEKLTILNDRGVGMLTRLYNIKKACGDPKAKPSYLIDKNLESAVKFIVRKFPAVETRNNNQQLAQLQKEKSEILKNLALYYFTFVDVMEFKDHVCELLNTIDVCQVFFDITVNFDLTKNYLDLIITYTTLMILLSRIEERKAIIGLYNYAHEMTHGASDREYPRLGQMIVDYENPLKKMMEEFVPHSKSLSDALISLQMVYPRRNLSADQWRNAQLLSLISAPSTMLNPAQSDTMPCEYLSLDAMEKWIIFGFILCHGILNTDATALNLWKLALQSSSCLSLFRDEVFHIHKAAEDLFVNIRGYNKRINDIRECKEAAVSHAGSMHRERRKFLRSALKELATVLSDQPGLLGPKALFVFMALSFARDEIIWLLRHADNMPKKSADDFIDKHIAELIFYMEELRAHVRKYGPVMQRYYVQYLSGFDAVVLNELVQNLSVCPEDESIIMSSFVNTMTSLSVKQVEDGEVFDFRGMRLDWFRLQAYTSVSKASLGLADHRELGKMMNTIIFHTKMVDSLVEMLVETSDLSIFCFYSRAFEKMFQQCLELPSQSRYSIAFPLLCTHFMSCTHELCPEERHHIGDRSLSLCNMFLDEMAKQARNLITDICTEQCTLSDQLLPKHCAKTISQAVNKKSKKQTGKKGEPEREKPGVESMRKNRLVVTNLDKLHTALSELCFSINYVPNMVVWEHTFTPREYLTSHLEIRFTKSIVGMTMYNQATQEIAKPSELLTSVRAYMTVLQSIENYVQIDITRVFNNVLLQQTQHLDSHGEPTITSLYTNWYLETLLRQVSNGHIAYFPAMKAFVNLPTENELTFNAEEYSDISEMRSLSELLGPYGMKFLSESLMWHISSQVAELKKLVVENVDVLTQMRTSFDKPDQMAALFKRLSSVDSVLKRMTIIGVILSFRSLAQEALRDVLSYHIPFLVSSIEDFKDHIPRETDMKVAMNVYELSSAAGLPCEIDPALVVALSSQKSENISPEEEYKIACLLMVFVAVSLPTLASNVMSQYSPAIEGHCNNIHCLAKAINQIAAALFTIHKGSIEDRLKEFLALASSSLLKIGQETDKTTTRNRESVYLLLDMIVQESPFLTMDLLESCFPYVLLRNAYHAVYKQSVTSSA

Regarding `C=CCNC1=C2C[C@@H](C)C[C@H](OC)[C@H](O)[C@@H](C)/C=C(\C)[C@H](OC(N)=O)[C@@H](OC)/C=C\C=C(/C)C(=O)NC(=CC1=O)C2=O` [17-AAG, reference compound], in the assay on WASF3 [1], the WASF3 phosphorylation levels entry was “reduced WASF3 phosphoactivation”.
With `CCN(CC)CCCC(C)Nc1nc(C)cc(Nc2ccc3nc(C)cc(N)c3c2)n1` (stereo not drawn) [NSC23766], the invasion entry in assay [2] is reported as “dose-dependent reduction in invasion potential”. Besides, in the assay with WASF3, NCKAP1 or RAC1, the “protein levels of either WASF3, NCKAP1 or RAC1” value is recorded as “without affecting; also recorded: does not affect protein levels”. The “invasion potential in cells expressing NCKAP1” value in [3] is reported as “significant reduction in invasion”; in assay [3] (listed as NSC23677), “significant reduction of invasion potential”.
On to “ELXSSIXDFKDHK (EL[S5]SSI[S5]DFKDHK-NH2; staple 3-7) [WANT2, WASF3-NCKAP1 Target stapled peptide; X is (S)-2-(4′-pentenyl)alanine]”, for which, in the assay on MDA-MB-231 cells, the invasion potential result is recorded as “no significant effect on invasion potential”.
Consider “KHCAXTISXAVNK (KHCA[S5]TIS[S5]AVNK-NH2; staple 5-9) [WANT1, WASF3-NCKAP1 Target stapled peptide; X is (S)-2-(4′-pentenyl)alanine]”, for which, in the assay on MDA-MB-231 cells, the invasion potential entry is on record as “no significant effect on invasion potential”.
On to “LEK*TNS*LAKIIRQL (LEK[S5]TNS[S5]LAKIIRQL-NH2; staple 4-8; not fully specified (N-terminus)) [WAHM1, WASF Helix Mimic stapled peptide; * is (S)-2-(4′-pentenyl)alanine that forms the staple]”, for which the “CYFIP1 in the pull down complex” value in the assay with CYFIP1 is “CYFIP1 was present in the pull down complex; also recorded: CYFIP1 was shown to interact”. Also, the “CYFIP1 in WASF3 immunocomplex” value with WASF3-CYFIP1 complex was “CYFIP1 was not present in the immunocomplex”. In addition, in the assay on WASF3 [4], the “WASF3 levels in serum-starved cells” value is recorded as “reduced below detectable levels”, the “intracellular levels of either WASF3 or CYFIP1” value is listed as “did not affect” and the WASF3 protein levels result is on record as “WASF3 protein levels were not affected; also recorded: without a reduction in WASF3 protein levels; also recorded: no reduction in WASF3 protein levels”. Moreover, the “cell proliferation (MTS)” value with MDA-MB-231 and PC3 cells [5] is “no significant difference in cell proliferation”. Moreover, in the assay with MDA-MB-231 and PC3 cells [6], the “actin stress fibers (phalloidin staining)” value was “increase in both the number and thickness of the actin stress fibers”; the “fluorescence intensity of phalloidin stained cells” value is given as “increased intensity”. Further, in the assay on MDA-MB-231 and PC3 cells [7], the “migration potential / cell motility” value was “reduced migration potential; also recorded: significant reduction in cell motility”. For the same compound, in the assay with MDA-MB-231 and PC3 cells [8], the “effect on invasion (in words)” value is given as “significantly suppresses invasion”. In addition, in the assay on WASF3 [1], the WASF3 phosphorylation levels entry is on record as “dramatic decrease in WASF3 phosphorylation levels; also recorded: reduction in WASF3 phosphorylation” and the “suppression of WASF3 phosphorylation compared with 17-AAG” value is “more efficient”. In addition, in the assay with KISS1, the KISS1 protein levels entry is on record as “increased KISS1 levels; also recorded: KISS1 levels increase”. Moreover, in the assay on MMP-9, the “secreted MMP9 levels” value is reported as “remarkable reduction in secreted MMP9 levels; also recorded: significantly reduced MMP9 levels”. In addition, the “suppression of invasion, WAHM1 compared with WANT3” value in the assay with MDA-MB-231 cells was “comparable suppression of invasion”.
In the case of “LEKKTN*TLA*IIRQL (LEKKTN[S5]TLA[S5]IIRQL-NH2; staple 7-11; not fully specified (N-terminus)) [WAHM2, WASF Helix Mimic stapled peptide; * is (S)-2-(4′-pentenyl)alanine that forms the staple]”, the “CYFIP1 in the pull down complex” value in the assay with CYFIP1 is recorded as “CYFIP1 was present in the pull down complex; also recorded: CYFIP1 was shown to interact”. For the same compound, in the assay with WASF3-CYFIP1 complex, the “CYFIP1 in WASF3 immunocomplex” value was “CYFIP1 was not present in the immunocomplex”. In the assay with WASF3 [4], the “WASF3 levels in serum-starved cells” value is on record as “reduced below detectable levels”, the “intracellular levels of either WASF3 or CYFIP1” value is given as “did not affect” and the WASF3 protein levels result is “WASF3 protein levels were not affected; also recorded: without a reduction in WASF3 protein levels; also recorded: no reduction in WASF3 protein levels”. For the same compound, in the assay with MDA-MB-231 and PC3 cells [5], the “cell proliferation (MTS)” value is recorded as “no significant difference in cell proliferation”. In the assay with MDA-MB-231 and PC3 cells [6], the “actin stress fibers (phalloidin staining)” value was “increase in both the number and thickness of the actin stress fibers”; the “fluorescence intensity of phalloidin stained cells” value is on record as “increased intensity”. The “migration potential / cell motility” value in the assay on MDA-MB-231 and PC3 cells [7] is recorded as “reduced migration potential; also recorded: significant reduction in cell motility”. Moreover, the “effect on invasion (in words)” value with MDA-MB-231 and PC3 cells [8] was “significantly suppresses invasion”. Further, in the assay on WASF3 [1], the WASF3 phosphorylation levels entry is on record as “dramatic decrease in WASF3 phosphorylation levels; also recorded: reduction in WASF3 phosphorylation” and the “suppression of WASF3 phosphorylation compared with 17-AAG” value was “more efficient”. Besides, in the assay with KISS1, the KISS1 protein levels entry is recorded as “increased KISS1 levels; also recorded: KISS1 levels increase”. Further, the “secreted MMP9 levels” value with MMP-9 is on record as “remarkable reduction in secreted MMP9 levels; also recorded: significantly reduced MMP9 levels”.
